From US20080119462A1, “METHOD FOR TREATING VASCULAR HYPERPERMEABLE DISEASE” (Sucampo AG, priority 2003, published 2008)
Where a name gives a salt, the structure may show the parent alone.

How the values were obtained:
diabetic rats = test: Ocular permeability in STZ diabetic rats (leakage of fluorescein into the vitreous); format: in vivo, rat; settings: daily from 2 weeks after STZ, mean ± S.E.M., 10 rats
Method: Diabetes in rats was induced with an intraperitoneal (i.p.) injection of 65 mg/ml/kg of streptozotocin (STZ) in 2 mmol/l citrate buffer (pH 4.5) after a 20-h fast. At the same time control rats were injected with an equal volume of 2 mmol/l citrate buffer. Plasma glucose level was checked by a calorimetric method. At day 3 of STZ treatment, the rats were diagnosed with diabetes showing a plasma glucose level of 350 mg/dl.
The treatment of Compound A was given daily from 2 weeks after STZ treatment for 2 weeks. At 24 hrs after final treatment of Compound A, the vascular permeability in oculus was investigated based on the leakage of dye into the vitreous 30 min after intravenous injection of fluorescein solution (40 mg/ml/kg). Permeability was expressed as vitreous/plasma ratio of fluorescein concentration measured by a fluorophotometer. At the same time, the plasma SSAO activity was checked by the radiochemical-enzyme assay using ^14C-benzylamine (2×10^−5 mol/l final concentration) as substrate.
In the same manner as in Example 2, the effect of various VAP-1 inhibitors on ocular permeability was determined in diabetic rats.

Row | SMILES | melting point [°C] | Vitreous/Plasma Ratio of Fluorescein Concentration (diabetic rats; 0.1 mg/kg, s.c.) | Vitreous/Plasma Ratio of Fluorescein Concentration (diabetic rats; 0.003%, ocular instillation, u.i.d.)
1 | CC(=O)Nc1nc(CCc2ccc(C(=N)N)cc2)cs1.Cl | 229.5 to 231 | – | –
2 | CC(=O)Nc1nc(CCc2ccc(CON)cc2)cs1 [Compound B, N-[4-(2-{4-[(aminooxy)methyl]phenyl}ethyl)-1,3-thiazol-2-yl]acetamide] | 130 to 130.5 | 7.54 ± 0.80 ×10^−3 | 9.86 ± 1.65 ×10^−3
3 | CC(=O)Nc1nc(CCc2ccc(NC3=NCCS3)cc2)cs1 [Production Example 2, N-(4-(2-(4-(4,5-dihydro-1,3-thiazol-2-ylamino)phenyl)ethyl)-1,3-thiazol-2-yl)acetamide] | 218 to 219.5 | – | –
4 | C=NOCc1ccc(CCc2csc(NC(C)=O)n2)cc1 [Production Example 17, N-{4-[2-(4-{[(methyleneamino)oxy]methyl}phenyl)ethyl]-1,3-thiazol-2-yl}acetamide] | 136.5 to 137 | – | –
5 | CC(=O)Nc1nc(CCc2ccc(NC(=N)N)cc2)c(Cc2ccc(S(C)(=O)=O)cc2)s1 [Production Example 48, N-{4-[2-(4-{[amino(imino)methyl]amino}phenyl)ethyl]-5-[4-(methylsulfonyl)benzyl]-1,3-thiazol-2-yl}acetamide] | 228 to 229.5 | – | –
6 | CC(=O)Nc1nc(CCc2ccc(NC3=NCCN3)cc2)c(Cc2ccc(S(C)(=O)=O)cc2)s1 [Production Example 55, N-{4-{2-[4-(4,5-dihydro-1H-imidazol-2-ylamino)phenyl]ethyl}-5-[4-(methylsulfonyl)benzyl]-1,3-thiazol-2-yl}acetamide] | 139 to 140 | – | –

Continued, in another order:

Row | melting point [°C] | SMILES | Vitreous/Plasma Ratio of Fluorescein Concentration (diabetic rats; 0.1 mg/kg, s.c.) | Vitreous/Plasma Ratio of Fluorescein Concentration (diabetic rats; 0.003%, ocular instillation, u.i.d.)
7 | 190.5 to 192 | CC(=O)Nc1nc(CCc2ccc(CC(=N)N)cc2)cs1 (as salt: hydrochloride) [Production Example 59, N-(4-{2-[4-(2-amino-2-iminoethyl)phenyl]ethyl}-1,3-thiazol-2-yl)acetamide] | – | –
8 | 81.5 to 83 | CC(=N)Nc1ccc(CCc2nc(NC(C)=O)sc2Cc2ccc(S(C)(=O)=O)cc2)cc1 [Production Example 56, N-{4-{2-[4-(ethanimidoylamino)phenyl]ethyl}-5-[4-(methylsulfonyl)benzyl]-1,3-thiazol-2-yl}acetamide] | – | –
9 | 108 to 109.5 | CC(=O)Nc1nc(CCc2ccc(C(=O)NC(=N)N)cc2)c(Cc2ccc(S(C)(=O)=O)cc2)s1 [Production Example 106, 4-(2-{2-(acetylamino)-5-[4-(methylsulfonyl)benzyl]-1,3-thiazol-4-yl}ethyl)-N-[amino(imino)methyl]benzamide] | – | –
